Some test systems named below: A549 NSCLC; ACHN renal; CAKI-1 renal; KM12 colon; MDA-MB-231 breast; OVCAR-3 ovarian; PC-3 prostate; SF-268 CNS; SNB-19 CNS.
Test in all cases: NCI tumour cell line growth inhibition, 48 h

Structures are written as SMILES.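 48-hour exposure; five concentrations; linearly interpolated endpoints. TGI: total growth inhibition.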

`O=C(CN1C(=O)CC(c2ccccc2)(c2ccccc2)C1=O)N1CCN(CCO)CC1`: the TGI in the assay with A549 NSCLC, with ACHN renal, with CAKI-1 renal, in the assay with KM12 colon, with MDA-MB-231 breast and in the assay on OVCAR-3 ovarian was over 100 µM throughout. Besides, the TGI in the assay with PC-3 prostate, in the assay with SF-268 CNS and in the assay with SNB-19 CNS was over 100 µM each time.

On to `c1ccc(C2=NOC(c3ccccc3)N2C23CC4CC(CC(C4)C2)C3)cc1` (stereo not given), for which the TGI in the assay on A549 NSCLC, in the assay with ACHN renal, in the assay with CAKI-1 renal, with KM12 colon, with MDA-MB-231 breast and with OVCAR-3 ovarian was over 10 µM throughout. Also, the TGI in the assay on PC-3 prostate, with SF-268 CNS and with SNB-19 CNS was over 10 µM in each case.

With `CCN(C(=O)N[C@@H](C)C(=O)N[C@@H](Cc1ccccc1)C(=O)OC)c1ccccc1`, the TGI in the assay on A549 NSCLC, with ACHN renal, with CAKI-1 renal, in the assay on KM12 colon, with MDA-MB-231 breast and in the assay on OVCAR-3 ovarian was over 100 µM throughout. Besides, the TGI with PC-3 prostate, in the assay with SF-268 CNS and in the assay on SNB-19 CNS was over 100 µM in each case.

On to `N#Cc1sc2c(c1OC(=O)c1ccc(C(F)(F)F)cc1)c(=O)n(-c1ccccc1)c(=S)n2-c1ccccc1`, for which the TGI was over 100 µM in the assay on A549 NSCLC; 93.5 µM in the assay on ACHN renal; 90.9 µM with CAKI-1 renal; over 100 µM in the assay with KM12 colon; over 100 µM in the assay on MDA-MB-231 breast; 55.5 µM with OVCAR-3 ovarian. The TGI in the assay with PC-3 prostate, in the assay with SF-268 CNS and with SNB-19 CNS was over 100 µM throughout.

With `O=C(O)C(O)C(O)C(O)C(O)CO` (stereo not given), the TGI in the assay with A549 NSCLC, in the assay on ACHN renal, in the assay on CAKI-1 renal, in the assay on KM12 colon, in the assay with MDA-MB-231 breast and with OVCAR-3 ovarian was over 100 µM in each case. In addition, the TGI in the assay with PC-3 prostate, in the assay on SF-268 CNS and with SNB-19 CNS was over 100 µM each time.

In the case of `CCN(CC)c1ccc(/C=C/c2ccnc3ccccc23)cc1`, the TGI in the assay with A549 NSCLC, in the assay with ACHN renal, with CAKI-1 renal, in the assay on KM12 colon, with MDA-MB-231 breast and in the assay with OVCAR-3 ovarian was over 100 µM throughout. Also, the TGI in the assay with PC-3 prostate, in the assay on SF-268 CNS and in the assay with SNB-19 CNS was over 100 µM throughout.

In the case of `Cc1ccc(/C=C2/N=C(N/N=C\C(O)C(O)C(O)C(O)CO)NC2=O)cc1` (stereo not given), the TGI in the assay on A549 NSCLC, in the assay with ACHN renal, in the assay with CAKI-1 renal, in the assay with KM12 colon, in the assay with MDA-MB-231 breast and with OVCAR-3 ovarian was over 100 µM throughout. Besides, the TGI with PC-3 prostate, in the assay with SF-268 CNS and with SNB-19 CNS was over 100 µM throughout.

Take `CC1(C)C=CC(=O)C(O)C(C)(C)C1=O` (stereo not given): the TGI in the assay on A549 NSCLC was over 100 µM; in the assay on ACHN renal, over 100 µM; in the assay on CAKI-1 renal it was over 100 µM; with KM12 colon it was over 100 µM; with MDA-MB-231 breast it was over 100 µM; in the assay with OVCAR-3 ovarian it was 79.6 µM. Moreover, the TGI with PC-3 prostate, in the assay with SF-268 CNS and with SNB-19 CNS was over 100 µM each time.

On to `C=C(C)CNCCN`, for which the TGI in the assay on A549 NSCLC, in the assay on ACHN renal, in the assay with CAKI-1 renal, with KM12 colon, with MDA-MB-231 breast and in the assay with OVCAR-3 ovarian was over 100 µM each time. In addition, the TGI in the assay on PC-3 prostate, in the assay on SF-268 CNS and with SNB-19 CNS was over 100 µM throughout.

`O=C1N(Cc2ccccc2)C2CSCC2N1Cc1ccccc1` (stereo not given): the TGI is over 100 µM in the assay with A549 NSCLC; over 100 µM with ACHN renal; over 100 µM in the assay on CAKI-1 renal; over 100 µM in the assay on KM12 colon; 68.3 µM with MDA-MB-231 breast; 43.9 µM in the assay on OVCAR-3 ovarian. Moreover, the TGI in the assay with PC-3 prostate, with SF-268 CNS and in the assay on SNB-19 CNS was over 100 µM each time.

`CCOC(=O)/C(C(C)=O)=C(\OC(C)=O)c1ccncc1C(=O)O`: the TGI in the assay with A549 NSCLC, in the assay on ACHN renal, in the assay with CAKI-1 renal, with KM12 colon, in the assay with MDA-MB-231 breast and in the assay on OVCAR-3 ovarian was over 100 µM each time. Further, the TGI in the assay on PC-3 prostate, in the assay on SF-268 CNS and in the assay with SNB-19 CNS was over 100 µM in each case.

For `COc1cc(C=O)ccc1O`, the TGI in the assay on A549 NSCLC, in the assay on ACHN renal, in the assay with CAKI-1 renal, in the assay on KM12 colon, in the assay on MDA-MB-231 breast and in the assay with OVCAR-3 ovarian was over 100 µM in each case. Also, the TGI with PC-3 prostate, in the assay with SF-268 CNS and in the assay on SNB-19 CNS was over 100 µM throughout.

Turning to `C[C@@H]1CCC2[C@@H](C)[C@@H](O[C@H]3O[C@@H]4O[C@@]5(C)CCC6[C@H](C)CCC([C@H]3C)[C@]64OO5)O[C@@H]3O[C@@]4(C)CCC1[C@@]23OO4` (stereo not given in full), the TGI in the assay on A549 NSCLC, in the assay with ACHN renal, in the assay with CAKI-1 renal, in the assay on KM12 colon, with MDA-MB-231 breast and in the assay with OVCAR-3 ovarian was over 25 µM each time. Also, the TGI in the assay with PC-3 prostate, in the assay with SF-268 CNS and in the assay with SNB-19 CNS was over 25 µM each time.

Turning to `COc1cccc2c1OC(c1cccc3ccccc13)C([N+](=O)[O-])=C2` (stereo not given), the TGI in the assay on A549 NSCLC came out at 3.75 µM; in the assay on ACHN renal, 3.02 µM; with CAKI-1 renal, 5.02 µM; in the assay on KM12 colon, 3.05 µM; in the assay on MDA-MB-231 breast it was 5.01 µM; in the assay with OVCAR-3 ovarian it was 2.74 µM. The TGI in the assay with PC-3 prostate worked out at 2.37 µM; in the assay on SF-268 CNS, 13.3 µM; in the assay with SNB-19 CNS, 3.01 µM.

With `COc1ccc2oc(=N)c(C(=O)Nc3ccccc3)cc2c1`, the TGI in the assay on A549 NSCLC, in the assay on ACHN renal, with CAKI-1 renal, with KM12 colon, in the assay on MDA-MB-231 breast and with OVCAR-3 ovarian was over 100 µM throughout. Moreover, the TGI was over 100 µM with PC-3 prostate, 53.9 µM with SF-268 CNS and over 100 µM in the assay with SNB-19 CNS.

These data come from PubChem BioAssay (NCI).
